pIC50: −log10 of the molar value. Structures can show the parent of a compound that is named as a salt.

This experiment has as its target T1, human recombinant 6His-Nterm SHP2 full-length (Thr2-Arg593) (Homo sapiens, UniProt Q06124).
T1 construct: 6His-Nterm SHP2 full-length (Thr2-Arg593, R&D system); 6His (N); purchased R&D system
T1 sequence (Q06124 2-593): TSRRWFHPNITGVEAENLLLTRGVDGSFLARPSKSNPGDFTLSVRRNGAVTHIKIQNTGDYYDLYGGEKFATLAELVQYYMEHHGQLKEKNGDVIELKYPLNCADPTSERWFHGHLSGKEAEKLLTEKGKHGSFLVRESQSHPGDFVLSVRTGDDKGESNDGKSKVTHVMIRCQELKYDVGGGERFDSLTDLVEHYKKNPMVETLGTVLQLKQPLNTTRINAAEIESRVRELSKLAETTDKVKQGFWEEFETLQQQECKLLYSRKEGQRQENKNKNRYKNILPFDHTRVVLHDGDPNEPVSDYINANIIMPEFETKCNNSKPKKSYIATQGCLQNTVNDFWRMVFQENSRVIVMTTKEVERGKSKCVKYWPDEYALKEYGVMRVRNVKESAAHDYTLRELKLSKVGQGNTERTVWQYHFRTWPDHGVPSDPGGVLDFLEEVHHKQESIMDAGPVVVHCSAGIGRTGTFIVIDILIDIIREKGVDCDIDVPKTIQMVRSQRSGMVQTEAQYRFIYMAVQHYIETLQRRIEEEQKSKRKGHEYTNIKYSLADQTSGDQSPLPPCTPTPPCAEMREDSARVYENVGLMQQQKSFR
The experiment in a line: SHP2 Phosphatase Assay (DiFMUP fluorescence). In kind it is biochemical. The settings on record: SHP2 0.2 nM pre-incubated with 100 nM bi-phosphorylated activating peptide; compound 1000-0.05 nM, 30 min pre-incubation; DiFMUP 20 µM, 45 min, room temperature; 10-concentration dose-response. The method, boiled down: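 SHP2 (0.2 nM) preactivated ≥10 min with 100 nM bis-phosphorylated peptide, then 30 min with compound (10 concentrations, 1000–0.05 nM) at room temperature, pH 7.2 HEPES buffer with DTT. DiFMUP (20 µM, added solution) reacted 45 min, pervanadate-stopped; fluorescence 350/450 nm. IC50 by 4-parameter logistic fit.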
For orientation: pIC50 means the negative decadic logarithm of the IC50, by convention in mol/L. Consider `Cc1nc(N2CCC3(CC2)Cc2ncccc2[C@H]3N)c2ccnn2c1-c1cccs1` [Compound 99, (5S)-1'-[6-methyl-7-(2-thienyl)pyrazolo[1,5-a]pyrazin-4-yl]spiro [5,7-dihydrocyclopenta[b]pyridine-6,4'-piperidine]-5-amine hydrochloride], for which the pIC50 was 8.05.

Take `Cc1nc(N2CCC3(CC2)Cc2ncccc2[C@H]3N)c2ccnn2c1-c1ccnc(N2CCOCC2)c1F` [Compound 198, (5S)-1'-[7-(3-fluoro-2-morpholino-4-pyridyl)-6-methyl-pyrazolo[1,5-a]pyrazin-4-yl]spiro[5,7-dihydrocyclopenta[b]pyridine-6,4'-piperidine]-5-amine]: the pIC50 is 6.36.

Regarding `Cc1nc(N2CCC3(CC2)Cc2ncccc2[C@H]3N)c2ccnn2c1-c1cccc(F)c1F` [Compound 1, (5S)-1'-[7-(2,3-difluorophenyl)-6-methyl-pyrazolo[1,5-a]pyrazin-4-yl]spiro[5,7-dihydrocyclopenta[b]pyridine-6,4'-piperidine]-5-amine], the pIC50 is 8.22.

Take `Cc1nc(N2CCC3(CC2)Cc2ncccc2[C@H]3N)c2cc(C(F)F)nn2c1-c1cnn(C)c1C` [Compound 36, (5S)-1'-[2-(difluoromethyl)-7-(1,5-dimethylpyrazol-4-yl)-6-methyl-pyrazolo[1,5-a]pyrazin-4-yl]spiro[5,7-dihydrocyclopenta[b]pyridine-6,4'-piperidine]-5-amine]: the negative logarithm of the IC50 (pIC50) was 6.64.

Turning to `COc1ccc2c(c1)[C@@H](N)C1(CCN(c3nc(C)c(-c4ccnc(C)c4Cl)n4nccc34)CC1)C2` [Compound 10, (1S)-1'-[7-(3-chloro-2-methyl-4-pyridyl)-6-methyl-pyrazolo [1,5-a]pyrazin-4-yl]-6-methoxy-spiro[indane-2,4'-piperidine]-1-amine hydrochloride], the pIC50 is 7.96.

Turning to `Cc1nc(N2CCC3(CC2)Cc2ncccc2[C@H]3N)c2ccnn2c1-c1cccc2c1OCC2` [Compound 178, (5S)-1'-[7-(2,3-dihydrobenzofuran-7-yl)-6-methyl-pyrazolo[1,5-a]pyrazin-4-yl]spiro[5,7-dihydrocyclopenta[b]pyridine-6,4'-piperidine]-5-amine], the negative-log IC50 (pIC50) is 7.85.

For the molecule `Cc1nc(N2CCC3(CC2)Cc2ncccc2[C@H]3N)c2ccnn2c1-c1cc2ccccc2n1C` [Compound 50, (5S)-1'-[6-methyl-7-(1-methylindol-2-yl)pyrazolo[1,5-a]pyrazin-4-yl]spiro[5,7-dihydrocyclopenta[b]pyridine-6,4'-piperidine]-5-amine], the pIC50 is 8.00.

Turning to `Cc1nc2c(o1)[C@@H](N)C1(CCN(c3nc(C)c(-c4ccccc4F)n4nccc34)CC1)C2` [Compound 224, (6S)-1'-[7-(2-fluorophenyl)-6-methyl-pyrazolo[1,5-a]pyrazin-4-yl]-2-methyl-spiro[4,6-dihydrocyclopenta[d]oxazole-5,4'-piperidine]-6-amine], the pIC50 is 7.57.

For the molecule `Cc1ccc2c(n1)CC1(CCN(c3nc(C)c(-c4ccccc4F)n4nccc34)CC1)[C@@H]2N` [Compound 106, (5S)-1'-[7-(2-fluorophenyl)-6-methyl-pyrazolo[1,5-a]pyrazin-4-yl]-2-methyl-spiro[5,7-dihydrocyclopenta[b]pyridine-6,4'-piperidine]-5-amine hydrochloride], the pIC50 was 7.85.

On to `Cc1nc(N2CCC3(CC2)Oc2ncccc2[C@H]3N)c2ccnn2c1-c1cccc(Cl)c1Cl` [Compound 17, (3R)-1'-[7-(2,3-dichlorophenyl)-6-methyl-pyrazolo[1,5-a]pyrazin-4-yl]spiro[3H-furo[2,3-b]pyridine-2,4'-piperidine]-3-amine], for which the pIC50 is 7.41.

Take `Cc1nc(N2CCC3(CC2)Oc2ncccc2[C@H]3N)c2ccnn2c1-c1cccc(F)c1C(F)(F)F` [Compound 129, (3R)-1'-[7-[3-fluoro-2-(trifluoromethyl)phenyl]-6-methyl-pyrazolo[1,5-a]pyrazin-4-yl]spiro[3H-furo[2,3-b]pyridine-2,4'-piperidine]-3-amine]: the pIC50 is less than 6.00.

With `COc1ccc2c(c1)[C@@H](N)C1(CCN(c3nc(C)c(-c4cc(C(F)(F)F)nn4C)n4nccc34)CC1)C2` [Compound 127, (1S)-6-methoxy-1'-[6-methyl-7-[2-methyl-5-(trifluoromethyl)pyrazol-3-yl]pyrazolo[1,5-a]pyrazin-4-yl]spiro[indane-2,4'-pipendine]-1-amine hydrochloride], the pIC50 was 7.66.

In the case of `Cc1nc(N2CCC3(CC2)Cc2ccc(C#N)cc2[C@@H]3N)c2ccnn2c1-c1cnn(C)c1C` (single isomer, unassigned) [Compound 212], the pIC50 was 6.54.

On to `COc1cccc(-c2c(C)nc(N3CCC4(CC3)Cc3ncccc3[C@H]4N)c3ccnn23)c1` [Compound 32, (5S)-1'-[7-(3-methoxyphenyl)-6-methyl-pyrazolo[1,5-a]pyrazin-4-yl]spiro[5,7-dihydrocyclopenta[b]pyridine-6,4'-piperidine]-5-amine], for which the pIC50 was 8.22.

For `Cc1nc(N2CCC3(CC2)Cc2ncccc2[C@H]3N)c2ccnn2c1-c1ccnc(C(F)(F)F)c1` [Compound 49, (5S)-1'-[6-methyl-7-[2-(trifluoromethyl)-4-pyridyl]pyrazolo[1,5-a]pyrazin-4-yl]spiro[5,7-dihydrocyclopenta[b]pyridine-6,4'-piperidine]-5-amine], the pIC50 was 6.89.

Take `Cc1nc(N2CCC3(CC2)Cc2ncccc2[C@H]3N)c2c(C(F)F)cnn2c1-c1ccccc1F` [Compound 147, (5S)-1'-[3-(difluoromethyl)-7-(2-fluorophenyl)-6-methyl-pyrazolo[1,5-a]pyrazin-4-yl]spiro[5,7-dihydrocyclopenta[b]pyridine-6,4'-piperidine]-5-amine]: the pIC50 is less than 6.00.

For the molecule `COc1cccc(-c2c(C)nc(N3CCC4(CC3)Cc3ncccc3[C@H]4N)c3ccnn23)c1Cl` [Compound 3, (5S)-1'-(7-(2-chloro-3-methoxyphenyl)-6-methylpyrazolo[1,5-a]pyrazin-4-yl)-5,7-dihydrospiro [cyclopenta[b]pyridine-6,4'-piperidin] -5-amine hydrochloride], the negative logarithm of the IC50 (pIC50) was 8.52.

For `Cc1nc(N2CCC3(CC2)Cc2nccnc2[C@H]3N)c2ccnn2c1-c1ccccc1F` [Compound 63, (5S)-1'-[7-(2-fluorophenyl)-6-methyl-pyrazolo[1,5-a]pyrazin-4-yl]spiro[5,7-dihydrocyclopenta[b]pyrazine-6,4'-piperidine]-5-amine], the pIC50 was 6.95.

`Cc1nc(N2CCC3(CC2)Cc2ncccc2[C@H]3N)c2ccnn2c1-c1ccnc(CO)c1Cl` [Compound 207, [4-[4-[(5S)-5-aminospiro[5,7-dihydrocyclopenta[b]pyridine-6,4'-pipetidine]-1'-yl]-6-methyl-pyrazolo[1,5-a]pyrazin-7-yl]-3-chloro-2-pyridyl]methanol]: the pIC50 was 7.80.

`Cc1nocc1-c1c(C)nc(N2CCC3(CC2)Cc2ccccc2[C@H]3N)c2ccnn12` [Compound 21, (1S)-1'-[6-methyl-7-(3-methylisoxazol-4-yl)pyrazolo[1,5-a]pyrazin-4-yl]spiro[indane-2,4'-piperidine]-1-amine]: the pIC50 is 7.24.

In the case of `Cc1nc(N2CCC3(CC2)Cc2ncccc2[C@H]3N)c2ccnn2c1-c1ccc2c(c1)CCCO2` [Compound 167, (5S)-1'-(7-chroman-6-yl-6-methyl-pyrazolo[1,5-a]pyrazin-4-yl)spiro[5,7-dihydrocyclopenta[b]pyridine-6,4'-piperidine]-5-amine], the pIC50 is 8.05.

Source of the values: patent publication EP4227307A1 (Genzyme Corporation, priority 2022, dated 2023).
